Results published in DBAASP.
≈ marks a conversion by molar mass, not a printed value. Where “and” joins values, the source holds several entries; their conditions need not be identical. Identical values can stand only once.

How the values were obtained:
Test in all cases: ≥ marks a high value that may be exact or a test limit, other limits are often not marked, values filed in µg/mL are converted to µM
[1] = test system: Streptococcus gordonii ATCC 10558
[2] = test system: Streptococcus mutans GS-5
[3] = test system: Streptococcus sanguinis ATCC 49295
[4] = test system: Streptococcus mutans UA159
[5] = test system: Proteus mirabilis
[6] = test system: Bacillus subtilis CICC 10034
[7] = test system: Staphylococcus aureus CICC 10306
[8] = test system: Escherichia coli CICC 10293
[9] = test system: Enterobacter cloacae CICC 21539
[10] = test system: Candida albicans CICC 1965
[11] = test system: Staphylococcus haemolyticus
[12] = test system: Aspergillus niger CICC 2124
[13] = test system: Salmonella enterica subsp. enterica serovar Paratyphi B CICC 10437
[14] = test system: Microsporum canis MW768151
[15] = test system: Staphylococcus sciuri
[16] = test system: Staphylococcus pseudintermedius
[17] = test system: Microsporum canis
[18] = test system: Saccharomyces cerevisiae CICC 1002
[19] = test system: Pseudomonas aeruginosa CICC 21636
[20] = test system: Staphylococcus simulans
[21] = test system: Listeria innocua CICC 10417
[22] = test system: Staphylococcus aureus CICC 10384
[23] = test system: Serratia marcescens ATCC 4112
[24] = test system: Trichophyton mentagrophytes
[25] = test system: Staphylococcus pseudintermedius MW767056
[26] = test system: Staphylococcus cohnii MW767053
[27] = test system: Enterococcus faecium V284-17
[28] = test system: Pseudomonas aeruginosa PAO1
[29] = test system: Staphylococcus epidermidis CGMCC 1.4260
[30] = test system: Escherichia coli CGMCC 1.8732
[31] = test system: Acinetobacter baumannii B28-16
[32] = test system: Klebsiella pneumoniae E406-17
[33] = test system: Staphylococcus aureus UAMS-1
[34] = test system: Staphylococcus epidermidis 1457
[35] = test system: Pseudomonas aeruginosa CGMCC 1.2421
[36] = test system: Klebsiella pneumoniae CGMCC 1.1736
[37] = test system: Staphylococcus aureus CGMCC 1.8721
[38] = test system: Enterococcus faecium ATCC 51559
[39] = test system: Escherichia coli K-12
[40] = test system: Staphylococcus aureus USA 300
[41] = test system: Escherichia coli E423-17
[42] = test system: Klebsiella pneumoniae ATCC 13883
[43] = test system: Pseudomonas aeruginosa E411-17
[44] = test system: Escherichia coli ATCC 25922
[45] = test system: Staphylococcus aureus Q14-0320
[46] = test system: Pseudomonas aeruginosa Q14-0208
[47] = test system: Acinetobacter baumannii Q13-0717
[48] = test system: Klebsiella pneumoniae Q14-0095
[49] = test system: Staphylococcus aureus NCTC 12493
[50] = test system: Klebsiella pneumoniae NCTC 13442
[51] = test system: Escherichia coli
[52] = test system: Acinetobacter baumannii Q12-0809
[53] = test system: Campylobacter jejuni NCTC 11351
[54] = test system: Klebsiella pneumoniae ATCC 700603
[55] = test system: Pseudomonas aeruginosa ATCC 27853
[56] = test system: Staphylococcus aureus ATCC 29213
[57] = test system: Pseudomonas aeruginosa

How did the MIC [1] turn out when `CC(C)C[C@H](NC(=O)[C@H](CCCN=C(N)N)NC(=O)[C@H](Cc1ccccc1)NC(=O)[C@H](Cc1ccccc1)NC(=O)[C@@H](N)[C@@H](C)O)C(=O)N[C@@H](Cc1ccccc1)C(=O)N[C@@H](CC(N)=O)C(=O)N[C@@H](CCCN=C(N)N)C(=O)N[C@@H](CO)C(=O)N[C@@H](Cc1ccccc1)C(=O)N[C@H](C(=O)NCC(=O)N[C@@H](CCCN=C(N)N)C(=O)N[C@@H](CCCN=C(N)N)C(=O)N[C@@H](CCCN=C(N)N)C(=O)N[C@@H](CCCN=C(N)N)C(=O)N[C@@H](CO)C(=O)N[C@H](C(=O)N[C@@H](CCC(N)=O)C(=O)N[C@@H](Cc1c[nH]c2ccccc12)C(=O)N[C@@H](CS)C(=O)N[C@@H](C)C(=O)O)C(C)C)[C@@H](C)O` [TFFRLFNRSFTGRRRRSVQWCA] was run?
The MIC was 17.8 µM (≈ 49.8 µg/mL).

What about the MIC [2] of the same compound?
Its MIC is 4.46 µM (≈ 12.4 µg/mL).

What about the MIC [3] of the same compound?
The MIC was at least 35.7 µM.

And the MIC [4]?
Its MIC is 3.82 µM (≈ 10.7 µg/mL).

With `CC[C@H](C)[C@H](NC(=O)[C@@H](NC(=O)[C@H](CO)NC(=O)[C@H](Cc1ccccc1)NC(=O)[C@H](CC(C)C)NC(=O)[C@H](CCCN=C(N)N)NC(=O)[C@@H](NC(=O)[C@H](CC(C)C)NC(=O)CN)[C@@H](C)O)C(C)C)C(=O)N[C@@H](CCCCN)C(=O)O` [GLTRLFSVIK] as the compound, how does the MIC [5] read?
The MIC was at least 226 µM.

What about the MIC [6] of the same compound?
Its MIC is 28.2 µM (≈ 32 µg/mL).

What about the MIC [7] of the same compound?
Its MIC is 14.1 µM (≈ 16 µg/mL).

And the MIC [8]?
The MIC was 14.1 µM (≈ 16 µg/mL).

What about the MIC [9] of the same compound?
The MIC was 14.1 µM (≈ 16 µg/mL).

And the MIC [10]?
Its MIC is 28.2 µM (≈ 32 µg/mL).

And the MIC [11]?
Its MIC is at least 226 µM.

What about the MIC [12] of the same compound?
The MIC was at least 56.5 µM.

And the MIC [13]?
The MIC was 28.2 µM (≈ 32 µg/mL).

And the MIC [14]?
The MIC was 0.882 µM (≈ 1 µg/mL).

What about the MIC [15] of the same compound?
The MIC was at least 226 µM.

What about the MIC [16] of the same compound?
Its MIC is at least 56.5 µM.

And the MIC [17]?
Its MIC is 0.624 µM (≈ 0.707 µg/mL).

What about the MIC [18] of the same compound?
Its MIC is at least 56.5 µM.

And the MIC [19]?
The MIC was 7.06 µM (≈ 8 µg/mL).

What about the MIC [20] of the same compound?
The MIC was at least 226 µM.

And the MIC [21]?
The MIC was 28.2 µM (≈ 32 µg/mL).

What about the MIC [22] of the same compound?
The MIC was 14.1 µM (≈ 16 µg/mL).

And the MIC [23]?
Its MIC is 7.06 µM (≈ 8 µg/mL).

What about the MIC [24] of the same compound?
The MIC was 0.882 µM (≈ 1 µg/mL).

What about the MIC [25] of the same compound?
The MIC was 28.2 µM (≈ 32 µg/mL).

What about the MIC [26] of the same compound?
Its MIC is at least 56.5 µM.

Which results are given for `CC[C@H](C)[C@H](NC(=O)[C@H](CCCNC(=N)N)NC(=O)[C@H](CCC(N)=O)NC(=O)[C@@H](NC(=O)[C@@H](NC(=O)[C@H](CCCNC(=N)N)NC(=O)[C@H](CCCCN)NC(=O)[C@H](Cc1ccccc1)NC(=O)CN)[C@@H](C)CC)C(C)C)C(=O)N[C@@H](CCCCN)C(=O)N[C@@H](CC(=O)O)C(=O)N[C@@H](Cc1ccccc1)C(=O)N[C@@H](CC(C)C)C(=O)N[C@@H](CCCNC(=N)N)C(=O)N[C@@H](CC(N)=O)C(=O)N[C@@H](CC(C)C)C(=O)N[C@H](C(N)=O)C(C)C` [GFKRIVQRIKDFLRNLV]?
MIC [27]: 2 µM (≈ 4.2 µg/mL); MIC [28]: 25 µM (≈ 52.5 µg/mL); MIC [29]: 3.12 µM (≈ 6.57 µg/mL); MIC [30]: 6.25 µM (≈ 13.1 µg/mL); MIC [31]: 1.6 µM and 4 µM; MIC [32]: ≥ 32 µM; MIC [33]: 7 µM and 3.1 µM; MIC [34]: 1.6 µM (≈ 3.36 µg/mL); MIC [35]: 6.25 µM (≈ 13.1 µg/mL); MIC [36]: 6.25 µM (≈ 13.1 µg/mL); MIC [37]: 6.25 µM (≈ 13.1 µg/mL); MIC [38]: 6.25 µM (≈ 13.1 µg/mL); MIC [39]: 7.5 µM and 14 µM; MIC [40]: 7.5 µM and 3.1 µM and 7 µM; MIC [41]: 16 µM (≈ 33.6 µg/mL); MIC [42]: 3.1 µM (≈ 6.51 µg/mL); MIC [43]: 16 µM (≈ 33.6 µg/mL); MIC [44]: 4.4 µM (≈ 9.25 µg/mL)

Which results are given for `C[C@H](NC(=O)[C@H](CCCN=C(N)N)NC(=O)[C@H](Cc1ccc(O)cc1)NC(=O)[C@H](Cc1cnc[nH]1)NC(=O)[C@H](Cc1c[nH]c2ccccc12)NC(=O)[C@H](CCCN=C(N)N)NC(=O)[C@H](Cc1c[nH]c2ccccc12)NC(=O)[C@H](C)NC(=O)[C@@H](NC(=O)CN)[C@@H](C)O)C(=O)N[C@@H](CCCN=C(N)N)C(=O)N[C@@H](CO)C(=O)O` [GTAWRWHYRARS]?
MIC [45]: ≥ 82.8 µM; MIC [46]: ≥ 82.8 µM; MIC [47]: ≥ 82.8 µM; MIC [48]: ≥ 82.8 µM; MIC [49]: ≥ 82.8 µM; MIC [50]: ≥ 82.8 µM; MIC [51]: 82.8 µM (≈ 128 µg/mL); MIC [52]: ≥ 82.8 µM; MIC [53]: ≥ 82.8 µM; MIC [54]: > 82.8 µM; MIC [55]: 82.8 µM (≈ 128 µg/mL); MIC [56]: > 82.8 µM; MIC [57]: > 331 µM
